Experimental data: patent publication US20210315840A1, “SOLID ORAL DOSAGE FORMS OF KETAMINE DERIVATIVES” (priority 2017, published 2021)

Tests used:
5-HT1B = 5-HT1B (Homo sapiens, UniProt P28222); assay: Binding assay 5-HT1B
Text: (§1) 2R,6R-hydroxynorketamine was investigated for binding to monoamine oxidases A and B, monoamine transporters, as well as a variety of 5HT receptors.

MAO-A = MAO-A (Homo sapiens, UniProt P21397); assay: Binding assay MAO-A
Text: as §1

CYP3A4 [1] = target: T1, CYP3A4 (Homo sapiens, UniProt P08684); assay: CYP inhibition assay CYP3A4, substrate midazolam; assay type: in vitro ADME; conditions: for % Inhibition: Substrate = midazolam
Text: (§2) Cytochrome P450s (CYPs) are a family of enzymes that play a primary role in the metabolism of a wide variety of drugs. 2R,6R-hydroxynorketamine was investigated for its potential to inhibit the action of 7 key CYP enzymes using an inhibition assay measuring reduction in the formation of metabolites compared to control.

CYP3A4 [2] = target: T1, CYP3A4; assay: CYP inhibition assay CYP3A4, substrate testosterone; assay type: in vitro ADME; conditions: for % Inhibition: Substrate = testosterone
Text: as §2

[3] = Oral bioavailability in vivo after oral gavage; conditions: mice

T1 sequence (P08684 whole entry): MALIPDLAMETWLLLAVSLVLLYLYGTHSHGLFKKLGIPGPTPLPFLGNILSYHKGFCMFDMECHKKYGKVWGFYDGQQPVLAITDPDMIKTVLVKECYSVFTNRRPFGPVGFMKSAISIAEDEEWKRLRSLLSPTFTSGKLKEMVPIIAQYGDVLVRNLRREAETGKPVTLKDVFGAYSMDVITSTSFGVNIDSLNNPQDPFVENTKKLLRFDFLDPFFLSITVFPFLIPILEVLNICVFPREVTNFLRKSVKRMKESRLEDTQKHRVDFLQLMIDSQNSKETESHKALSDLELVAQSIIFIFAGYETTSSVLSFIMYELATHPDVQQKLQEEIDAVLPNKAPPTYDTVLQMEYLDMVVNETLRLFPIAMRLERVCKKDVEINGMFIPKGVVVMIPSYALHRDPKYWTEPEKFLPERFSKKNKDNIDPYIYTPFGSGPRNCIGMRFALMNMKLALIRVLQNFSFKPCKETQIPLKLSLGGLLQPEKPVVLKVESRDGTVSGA
Chain of 5-HT1B (P28222 whole entry, species assumed): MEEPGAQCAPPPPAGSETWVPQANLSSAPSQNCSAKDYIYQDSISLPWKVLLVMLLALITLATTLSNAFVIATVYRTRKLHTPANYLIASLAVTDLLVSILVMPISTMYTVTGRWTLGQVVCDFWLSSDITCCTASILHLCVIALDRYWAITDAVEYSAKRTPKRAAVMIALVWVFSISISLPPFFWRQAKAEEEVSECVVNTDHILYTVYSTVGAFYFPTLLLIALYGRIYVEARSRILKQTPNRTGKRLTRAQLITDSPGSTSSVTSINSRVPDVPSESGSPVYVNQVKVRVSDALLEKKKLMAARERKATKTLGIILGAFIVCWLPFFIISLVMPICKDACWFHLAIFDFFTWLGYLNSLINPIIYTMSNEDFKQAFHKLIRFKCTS
Chain of MAO-A (P21397 whole entry, species assumed): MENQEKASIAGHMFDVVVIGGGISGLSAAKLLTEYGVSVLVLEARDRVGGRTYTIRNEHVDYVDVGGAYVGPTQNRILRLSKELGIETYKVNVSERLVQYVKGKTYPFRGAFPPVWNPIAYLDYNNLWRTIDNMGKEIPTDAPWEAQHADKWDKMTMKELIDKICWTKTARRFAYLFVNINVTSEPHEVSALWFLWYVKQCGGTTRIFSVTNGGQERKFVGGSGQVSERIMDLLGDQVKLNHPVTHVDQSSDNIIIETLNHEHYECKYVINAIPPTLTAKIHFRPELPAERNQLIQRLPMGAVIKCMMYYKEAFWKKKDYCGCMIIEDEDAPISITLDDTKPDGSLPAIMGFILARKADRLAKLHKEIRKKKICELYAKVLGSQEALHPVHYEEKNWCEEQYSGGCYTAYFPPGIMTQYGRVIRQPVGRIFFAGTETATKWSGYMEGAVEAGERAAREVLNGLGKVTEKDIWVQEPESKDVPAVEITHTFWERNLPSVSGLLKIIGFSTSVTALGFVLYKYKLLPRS

N[C@@]1(c2ccccc2Cl)CCC[C@@H](O)C1=O [2R,6R-hydroxynorketamine, 2R,6R-2-(2-Chlorophenyl)-2-(amino)-6-hydroxycyclohexanone]
% Inhibition of Control Specific Binding (5-HT1B): −2%
% of Control Specific Binding (5-HT1B): 102.7%
binding to 5HT1B receptor subtype (in words) (5-HT1B): does not bind
% Inhibition of Control Specific Binding (MAO-A): −5%
% of Control Specific Binding (MAO-A): 97.7%
% Inhibition (CYP3A4 [1]; 0.4 μM): 11.5%
% Inhibition (CYP3A4 [1]; 1 μM): 8.44%
% Inhibition (CYP3A4 [1]; 4 μM): 15.7%
% Inhibition (CYP3A4 [1]; 10 μM): 25.7%
% Inhibition (CYP3A4 [1]; 40 μM): 43.7%
% Inhibition (CYP3A4 [1]; 100 μM): 57.5%
IC50 (CYP3A4 [1]; substrate midazolam): 69 µM
% Inhibition (CYP3A4 [2]; 0.4 μM): 1.62%
% Inhibition (CYP3A4 [2]; 1 μM): −0.509%
% Inhibition (CYP3A4 [2]; 4 μM): 7.04%
% Inhibition (CYP3A4 [2]; 10 μM): 12.4%
% Inhibition (CYP3A4 [2]; 40 μM): 35.2%
% Inhibition (CYP3A4 [2]; 100 μM): 53.4%
IC50 (CYP3A4 [2]; substrate testosterone): 81 µM
oral bioavailability ([3]; high oral dose (>30 mg/kg)): good
oral bioavailability ([3]; low oral dose): poor
